The test system of this experiment is 128128-338-R-J1-PDC spheroids, viability % test/control. The experiment is described as follows: Anticancer human tumor 128128-338-R-J1-PDC patient-derived melanoma cell line growth inhibition [TAK]. The note with it: spheroids with HUVEC and MSC; for viability, T/C: stronger effect = lower value. The text has this:
Combinatorial screen of targeted agents with TAK-243 and ipatasertib in multi-cell type tumor spheroids
A high-throughput screen of multi-cell type tumor spheroids was designed to identify active combinations of targeted small molecules and TAK-243 or ipatasertib. Complex spheroids include a stromal component modeled by human endothelial cells (HUVEC) and fibroblasts modeled by human mesenchymal stem cells (MSCs). The concentration ranges selected for each drug and investigational agent were based upon clinically achievable concentrations if the clinical Cmax of the agent was known.
Compounds. The drugs and investigational agents: TAK-243 (785004), ipatasertib (767898), everolimus (733504), selumetinib (741078), bortezomib (756655), trametinib (758246), ixazomib (758254), vemurafenib (761431), dabrafenib (764134), sapanisertib (764658), alpelisib (765974), and copanlisib (816437), were obtained from the National Cancer Institute (NCI) Developmental Therapeutics Program Chemical Repository. The FDA-approved anticancer drug set is available from the NCI Developmental Therapeutics Program. […] The stock solutions were prepared in dimethyl sulfoxide (DMSO, Sigma-Aldrich, St. Louis, MO, cat. D2650) at 800-fold the tested concentration and stored at -70 degrees C prior to their use. All drugs and investigational agents were tested over a range starting from a high concentration at or near the clinical Cmax and decreasing in half-log increments. If the clinical Cmax for an agent had not been determined, the highest concentration tested was 10 microM.
NCI60 Cell Culture. NCI60 cell lines were obtained from the NCI Developmental Therapeutics Program Tumor Repository. For each lot of cells, the Repository performed Applied Biosystems AmpFLSTR Identifiler testing with PCR amplification to confirm consistency with the published Identifier STR profile for each cell line. Cells were kept in continuous culture for no more than 20 passages. The optimal seeding densities for each of the cell lines at each time point assessed were determined prior to performing the concentration response studies. Briefly, the NCI60 human tumor lines were grown as monolayers in RPMI 1640 medium supplemented with 10% FBS and 2 mmol/L L-glutamine.
An additional 2 lines were from the NCI60 cell line panel including melanomas, MALME-3M and SK-MEL-2. Pooled donor human umbilical vein endothelial cells (HUVEC, Lonza, cat. CC-2519) and human mesenchymal stem cells (hMSC, Lonza, cat. PT-2501) were purchased from Lonza (Walkersville, MD).
PDMR cell lines were grown in complete medium (DC medium): Dulbecco's modified Eagle's medium (DMEM)/F12 supplemented with 5% fetal bovine serum (FBS), 2 mM L-glutamine, 100 U/mL penicillin and 100 µg/ml streptomycin, 0.4 µg/ml hydrocortisone, 10 ng/ml epidermal growth factor (EGF) recombinant human protein, 24 µg/mL adenine, and 0.1 mg/mL primocin. During culture from frozen stock vials, PDMR cells were cultured in the same medium containing 10 µM Y-27632 (see Table 3). The PDCs were cultured in complete DMEM/F12 media without 10 microM Y-27632 dihydrochloride for at least two passages prior to the screen. The pooled donor HUVEC and hMSC were cultured in endothelial cell growth medium 2 (PromoCell, Heidelberg, Germany, cat. C-22011) and mesenchymal stem cell growth medium 2 (PromoCell, cat. C-28009), respectively. For all experiments, HUVEC and hMSC were used at passages </=5.
For the pre-screen, cell seeding densities were determined from a titration spanning the range from 5,000 to 313 cells per well. The mct-spheroids including 60% malignant cells, 25% HUVEC and 15% MSC dispensed as a mixture into U-bottom Ultra-Low Attachment 384-well plates (Corning, NY)
High-throughput Drug Combination Screening.
Prior to their inoculation into 384-well plates, malignant cells, HUVEC, and hMSC were removed from T flasks using TrypLE express (Thermo Fisher Scientific, cat. 12605036) and harvested by centrifugation for 5 min at 233 x g. […]

[1] abbreviates: curve of first compound, second compound 0.3 µM.
The mark [2] stands for this setting: curve of first compound, second compound 0.949 µM.
[3] abbreviates: curve of first compound, second compound 3 µM.
The mark [4] stands for this setting: curve of first compound, second compound 9.49 µM.
Where [5] appears, read: curve of first compound, second compound 30 µM.
Setting [6] is: second compound 0.3 µM, first compound 0.0316 µM.
The mark [7] stands for this setting: second compound 0.3 µM, first compound 0.1 µM.
The mark [8] stands for this setting: second compound 0.3 µM, first compound 0.316 µM.
The mark [9] stands for this setting: second compound 0.3 µM, first compound 1 µM.
Where [10] appears, read: second compound 0.3 µM, first compound 3.16 µM.
Setting [11] is: second compound 0.3 µM, first compound 10 µM.
Setting [12] is: second compound 0.949 µM, first compound 0.0316 µM.
The mark [13] stands for this setting: second compound 0.949 µM, first compound 0.1 µM.
Where [14] appears, read: second compound 0.949 µM, first compound 0.316 µM.
Setting [15] is: second compound 0.949 µM, first compound 1 µM.
The mark [16] stands for this setting: second compound 0.949 µM, first compound 3.16 µM.
[17] abbreviates: second compound 0.949 µM, first compound 10 µM.
The mark [18] stands for this setting: second compound 3 µM, first compound 0.0316 µM.
Setting [19] is: second compound 3 µM, first compound 0.1 µM.
[20] abbreviates: second compound 3 µM, first compound 0.316 µM.
Setting [21] is: second compound 3 µM, first compound 1 µM.
[22] abbreviates: second compound 3 µM, first compound 3.16 µM.
Where [23] appears, read: second compound 3 µM, first compound 10 µM.
The mark [24] stands for this setting: second compound 9.49 µM, first compound 0.0316 µM.
Setting [25] is: second compound 9.49 µM, first compound 0.1 µM.
Setting [26] is: second compound 9.49 µM, first compound 0.316 µM.
Where [27] appears, read: second compound 9.49 µM, first compound 1 µM.
The mark [28] stands for this setting: second compound 9.49 µM, first compound 3.16 µM.
[29] abbreviates: second compound 9.49 µM, first compound 10 µM.
[30] abbreviates: second compound 30 µM, first compound 0.0316 µM.
[31] abbreviates: second compound 30 µM, first compound 0.1 µM.
Setting [32] is: second compound 30 µM, first compound 0.316 µM.
The mark [33] stands for this setting: second compound 30 µM, first compound 1 µM.
Where [34] appears, read: second compound 30 µM, first compound 3.16 µM.
Where [35] appears, read: second compound 30 µM, first compound 10 µM.

Several values for one entry are separate records, joined by “and”; a condition that tells them apart may be missing. Equal values may be shown once. Where only a bound is given, the exact number is not on record here.
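Note: spheroids exposed to compounds for 7 days.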
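Throughout, for viability, T/C: 100% = DMSO vehicle wells.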

What is called IC50 is the midpoint of a concentration-inhibition curve. What is called viability, T/C is the result in the treated group divided by that in the control group, in per cent. Consider `CC(C)(C)c1nc(-c2cccc(NS(=O)(=O)c3c(F)cccc3F)c2F)c(-c2ccnc(N)n2)s1` + CC(C)NCC(C(=O)N1CCN(c2ncnc3c2C(C)CC3O)CC1)c1ccc(Cl)cc1, for which the 50% inhibitory concentration (IC50) reads like this: under setting [1], 46 nM; under setting [2], 41.2 nM; under setting [3], < 31.6 nM; under setting [4], < 31.6 nM; under setting [5], < 31.6 nM. The viability, T/C under setting [6] is 61%; the viability, T/C under setting [7] was 27.1%; the viability, T/C under setting [8] is 6.08%; the viability, T/C under setting [9] is 1.93%; the viability, T/C under setting [10] was 1.83%; the viability, T/C under setting [11] was 8.83%. Besides, the viability, T/C under setting [12] was 58.6%; the viability, T/C under setting [13] was 21%; the viability, T/C under setting [14] was 2.85%; the viability, T/C under setting [15] was 1.56%; the viability, T/C under setting [16] is 0.98%; the viability, T/C under setting [17] was 2.06%. The viability, T/C was 29.6% under setting [18]; 8.97% under setting [19]; 1.74% under setting [20]; 1.17% under setting [21]; 0.79% under setting [22]; 0.99% under setting [23]. In addition, the viability, T/C runs as follows: under setting [24], 12.7%; under setting [25], 1.27%; under setting [26], 1.2%; under setting [27], 0.7%; under setting [28], 0.6%; under setting [29], 0.64%. Further, the viability, T/C was 0.69% under setting [30]; 0.56% under setting [31]; 0.78% under setting [32]; 0.44% under setting [33]; 0.34% under setting [34]; 0.42% under setting [35].

Turning to `CC(=O)Nc1cccc(-n2c(=O)n(C3CC3)c(=O)c3c(Nc4ccc(I)cc4F)n(C)c(=O)c(C)c32)c1`, the viability, T/C is 98.2% and 101% (compound 94.9 pM); 97.9% and 94.4% (compound 0.0003 µM); 82.8% and 70% (compound 0.000949 µM); 41.4% and 25.6% (compound 0.003 µM); 5.07% and 3.1% (compound 0.00949 µM); 2.37% and 2.18% (compound 0.03 µM). Also, for the setting “curve of compound”, the concentration for half-maximal inhibition (IC50) was 2.32 nM and 1.58 nM.

As to `COC1CC2CCC(C)C(O)(O2)C(=O)C(=O)N2CCCCC2C(=O)OC(C(C)CC2CCC(OCCO)C(OC)C2)CC(=O)C(C)C=C(C)C(O)C(OC)C(=O)C(C)CC(C)C=CC=CC=C1C` (centres undefined), the viability, T/C reads like this: (compound 0.000316 µM) 108% and 104%; (compound 0.001 µM) 102%; (compound 0.00316 µM) 96.4% and 93.1%; (compound 0.01 µM) 79.5% and 86.7%; (compound 0.0316 µM) 64.5% and 67.5%; (compound 0.1 µM) 51.6% and 53.8%. Besides, where the note is “curve of compound”, the IC50 was > 100 nM.

For `CC(C)NCC(C(=O)N1CCN(c2ncnc3c2C(C)CC3O)CC1)c1ccc(Cl)cc1` (centres undefined), the viability, T/C reads like this: (compound 0.3 µM) 102% [middle of 10 runs]; (compound 0.949 µM) 93% [middle of 10 runs]; (compound 3 µM) 89.2% [middle of 10 runs]; (compound 9.49 µM) 69.5% [middle of 10 runs]; (compound 30 µM) 22.7% [middle of 10 runs].

As to `Cc1nc(NC(=O)N2CCCC2C(N)=O)sc1-c1ccnc(C(C)(C)C(F)(F)F)c1` (centres undefined) + CC(C)NCC(C(=O)N1CCN(c2ncnc3c2C(C)CC3O)CC1)c1ccc(Cl)cc1, the IC50 was > 10000 nM under setting [1]; > 10000 nM under setting [2]; > 10000 nM under setting [3]; 3460 nM under setting [4]; < 31.6 nM under setting [5]. Further, the viability, T/C under setting [6] is 102%; the viability, T/C under setting [7] was 105%; the viability, T/C under setting [8] was 102%; the viability, T/C under setting [9] was 105%; the viability, T/C under setting [10] was 105%; the viability, T/C under setting [11] is 73.2%. In addition, the viability, T/C under setting [12] is 89%; the viability, T/C under setting [13] is 103%; the viability, T/C under setting [14] was 100%; the viability, T/C under setting [15] was 91.7%; the viability, T/C under setting [16] was 82.7%; the viability, T/C under setting [17] is 81.8%. In addition, the viability, T/C runs as follows: under setting [18], 95.8%; under setting [19], 88.8%; under setting [20], 90.7%; under setting [21], 84.7%; under setting [22], 80%; under setting [23], 54.5%. In addition, the viability, T/C runs as follows: under setting [24], 69.5%; under setting [25], 70.2%; under setting [26], 68.5%; under setting [27], 64.8%; under setting [28], 51.8%; under setting [29], 23.7%. The viability, T/C is, setting by setting: under setting [30], 24.1%; under setting [31], 21.2%; under setting [32], 22.1%; under setting [33], 16.6%; under setting [34], 15%; under setting [35], 3.6%.

(Values after PubChem BioAssay AID2060362 (Molecular Pharmacology Branch, DTP, NCI, 2025).)
